Source: patent publication US20180021294A1, “Ephrin Receptor A2 (EPHA2)-Targeted Docetaxel-Generating Nano-Liposome Compositions” (Merrimack Pharmaceuticals, Inc., priority 2016, published 2018)

What was measured:
MDA-MB-231 xenograft = test: Drug biodistribution in MDA-MB-231 xenograft model; assay type: in vivo, mice; details: after 40scFv-ILs-DTXp3 50 mpk; tumor vs liver and spleen
From the text: Each group consists of 3 animals. “Mpk” stand for mg of the drug per kg animal body weight.
The animals received one tail vein injection of 40scFv-ILs-DTXp3 at 50 mpk or free docetaxel at 10 mpk. At each time point, animals were sacrificed and tumor, liver and spleen were collected and flash frozen.
All tissue samples were thawed, weighed, and then mechanically homogenized using a Bullet Blender (Next Advance, Inc., Averill Park, N.Y.) in a solution of 40% acetonitrile containing 0.25% trifluoroacetic acid. The acid was included in the solvent for pH stabilization of Compound 3. […]
The homogenized tissue samples were analyzed utilizing two bioanalytical assays to individually measure Compound 3 and DTX. […] The analytes, Compound 3 and DTX, were detected in both assays by multiple reaction monitoring (MRM) in positive ion mode using electrospray ionization. The homogenized tissue samples were quantitated for Compound 3 and DTX using extracted calibration standards and quality control (QC) samples prepared by spiking Compound 3 or DTX into an acidified plasma matrix, which is a 3:2 mixture of female CD-1 lithium heparinized mouse plasma (Bioreclamation, LLC, Westbury, N.Y.) and 200 mM sodium phosphate buffer (pH 2.5). […]

[1] = Hydrolysis in buffer at 37° C., % DTX formation by HPLC; assay type: physicochemical
Description: A volume of a 10 mg/mL solution of drug in DMSO as needed to provide the desired concentration (typically 16 p1 to yield a 80 μg/mL solution) is placed in a glass test tube or 4 mL vial. Additional DMSO may also be added (e.g. 64 μL when using 164 of drug solution) to yield a final total DMSO concentration of 4%. The DMSO solutions are mixed by brief vortexing, and then 2 mL (20 mM) HEPES buffer for pH 7.5 and 2 mL of (20 mM) phosphate buffer for pH 2.5 is added and the mixture is vortexed again. The initial pH may be adjusted by addition of HCl or NaOH.
Then 100 μLaliquots of the buffer solution of drug are transferred into HPLC vials and incubated in a 37° C. water bath. The remaining solution is also incubated at 37° C. in 4 mL vials for monitoring of pH.
At each time point 900 μL of 0.1% trifluoroacetic acid (TFA) in acetonitrile (ACN) is added to the HPLC vial and the contents are vortexed. The vials are then placed in an autosampler rack at 4° C. for HPLC analysis.
Time zero data points are typically obtained from a solution of 4 μL DMSO stock in 5 mL of 0.1% TFA/ACN (8 μg/mL).
HPLC analysis is performed on a SYNERGI 4 micron Polar RP-80A, 250×4.6 mm column, using a flow rate of 1 mL/min, a 50 μL injection volume, column temperature of 25° C. and with UV detection at 227 nm. Most compounds are analyzed using a 13 min gradient (Method A) from 30 to 66% acetonitrile in aqueous 0.1% TFA, followed by a 1 min gradient back to 30% and a hold at 30% for 6 minutes. If the retention time is too long for this method, a 20 min gradient (Method B) of 30 to 90% acetonitrile, followed by a 1 min return to 30% and held for 9 min at 30% is employed.
The extent of hydrolysis is reported in Table 7 below as the % DTX formation based on relative peak areas.

[2] = Coagulation parameters (PT, APTT, fibrinogen) in rats; assay type: in vivo, Sprague Dawley rats; details: 10 mg/kg, end of study (Day 30), vs vehicle control
Description: Blood samples collected at end of study from all the tested groups were analyzed for coagulation-related parameters including: Prothrombin time (PT), activated partial thromboplastin time (APTT) and fibrinogen levels.

[3] = Chronic tolerability studies; details: in vivo
Description: Chronic tolerability studies were performed in rodent and non-rodent models with focus on overall animal health, as well as hematologic toxicities.

[4] = In vivo tolerability in Swiss Webster mice; details: IV
From the text: Swiss Webster homozygous female mice (5-6 week old) were obtained from Charles River Laboratory. The animals received tail vein injections, at the intervals of 7 days of tested compound at tested dose (Table 5: Experimental design).
Animal weight and performance status score were monitored based on clinical observation of the mice three to four times a week (clinical observations table). Animals that experience severe toxicity are euthanized according to IACUC protocol. If more than 30% of the mice experience severe toxicity the tested dose is deemed not tolerated.

SUM-159 xenograft = details: mouse, in vivo
From the text: The animals received four tail vein injections, at the intervals of 7 days.
The tumor progression was monitored by palpation and caliper measurements of the tumors along the largest (length) and smallest (width) axis twice a week.

SMILES | conversion of prodrug to docetaxel in tissue (docetaxel/Compound 3 ratio) (MDA-MB-231 xenograft) | Percentage of Hydrolysis (% DTX formation) ([1]; pH 2.5, 0 h) | Percentage of Hydrolysis (% DTX formation) ([1]; pH 2.5, 5 h) | Percentage of Hydrolysis (% DTX formation) ([1]; pH 2.5, 24 h) | Percentage of Hydrolysis (% DTX formation) ([1]; pH 2.5, 48 h) | Percentage of Hydrolysis (% DTX formation) ([1]; pH 2.5, 96 h) | Percentage of Hydrolysis (% DTX formation) ([1]; pH 7.5, 0 h) | Percentage of Hydrolysis (% DTX formation) ([1]; pH 7.5, 5 h) | Percentage of Hydrolysis (% DTX formation) ([1]; pH 7.5, 24 h) | Percentage of Hydrolysis (% DTX formation) ([1]; pH 7.5, 48 h) | Percentage of Hydrolysis (% DTX formation) ([1]; pH 7.5, 96 h) | Activated partial thromboplastin time (APTT) [2] | MTD [3] | maximum tolerated dose for weekly treatment [4] | treatment related toxicity (body weight) (SUM-159 xenograft)
CCN(CC)CCCC(=O)O[C@@H](C(=O)O[C@H]1C[C@@]2(O)[C@@H](OC(=O)c3ccccc3)[C@@H]3[C@]4(OC(C)=O)CO[C@@H]4C[C@H](O)[C@@]3(C)C(=O)[C@H](O)C(=C1C)C2(C)C)[C@@H](NC(=O)OC(C)(C)C)c1ccccc1.Cl [Compound 3, 2′-O-(4-Diethylaminobutanoyl) DTX Hydrochloride] | sustained conversion of the Compound 3 to docetaxel at the tumor site | 0.00% | 0.00% | 0.00% | 0.00% | 0% | 0.00% | 45.76% | 100.00% | 100.00% | 100% | – | – | – | –
CC(=O)O[C@@]12CO[C@@H]1C[C@H](O)[C@@]1(C)C(=O)[C@H](O)C3=C(C)[C@@H](OC(=O)[C@H](OC(=O)CCCN(C)C)[C@@H](NC(=O)OC(C)(C)C)c4ccccc4)C[C@@](O)([C@@H](OC(=O)c4ccccc4)[C@H]21)C3(C)C.Cl [Compound 4, 2′-O-[4-(N,N-Dimethylamino)butanoyl] DTX Hydrochloride] | – | 0.00% | 0.00% | 0.00% | 0.00% | 0% | 0.00% | 76.07% | 100.00% | 100.00% | 100% | – | – | – | –
CC(=O)O[C@@]12CO[C@@H]1C[C@H](O)[C@@]1(C)C(=O)[C@H](O)C3=C(C)[C@@H](OC(=O)[C@H](O)[C@@H](NC(=O)OC(C)(C)C)c4ccccc4)C[C@@](O)([C@@H](OC(=O)c4ccccc4)[C@H]21)C3(C)C [docetaxel] | – | – | – | – | – | – | – | – | – | – | – | shortened | 20 mg/kg | 20 mpk | severe
